Test results from US11584744B2 (UNIVERSITY OF WASHINGTON, priority 2017, dated 2023).
In brackets after ≈: the same amount, converted by molar mass. Read-outs that look alike come from different tables or passages of the source.

Experiments:
[1] = target: recombinant S. aureus MetRS enzyme (Staphylococcus aureus, UniProt A0A0H2XID2); assay: Inhibition of SaMetRS, ATP depletion assay; type: biochemical; details: read-out: (B) MetRS (S. aureus) IC50
Method: Production of recombinant S. aureus MetRSs. The SaMetRS gene (UniProtKB—A0A0H2XID2) was PCR amplified (Sense 5′-[…]-3′ (SEQ ID NO: 1) and Antisense 5′-[…]-3′ (SEQ ID NO:2)) from genomic DNA isolated from S. aureus (ATCC 29213) cultures. The PCR product was then cloned into the AVA0421 plasmid and sequence verified. The expression of recombinant protein was performed as previously described. The N-terminal 6-His fusion proteins were purified by nickel affinity chromatography followed by size exclusion gel chromatography (Superdex 75 26/60; GE Biosciences, Piscataway, N.J.).
Enzyme assays. Inhibition of SaMetRS was measured using the ATP depletion assay as previously described with some modifications. Compounds were pre-incubated for 15 minutes at room temperature in a 96-well plate with 400 μg/mL bulk E. coli tRNA, 25 nM SaMetRS, 0.1 U/mL pyrophosphatase, 0.2 mM spermine, 0.1 mg/mL bovine serum albumin, 2.5 mM dithiothreitol, 25 mM HEPES-KOH pH 7.9, 10 mM MgCl2, 50 mM KCl, and 2% DMSO. Reagents were purchased from Sigma-Aldrich or Roche. The reaction was started with the addition of 150 nM ATP and 20 μM L-methionine and after 120 minute incubation was stopped by the addition of an equal volume (50 μL) of Kinase-Glo® (Promega). Percent inhibition=100×(test compound−AVG low control)/(AVG high control−AVG low control) where the low control is all reagents except the compound and the high control is all reagents except the compounds and L-methionine. IC50 values were calculated by non-linear regression, sigmoidal-dose response, in Prism 3.0.

[2] = tested on: S. aureus MRSA (ATCC 33591); assay: MIC susceptibility testing; type: cell-based, Staphylococcus aureus; details: Staphylococcus aureus, MRSA ATCC33591; read-out: (G) MRSA (ATCC33591) MIC
In short: (§1)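 CLSI broth microdilution with two-fold compound dilutions, in triplicate; cells added in medium at 1×10^6 CFUs/mL, DMSO ≤0.5%. Media: MHB for S. aureus, CA-MHB for E. coli and E. faecium, CA-MHB plus 3% laked horse blood for S. pyogenes (5% CO2).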

[3] = tested on: S. aureus MSSA (ATCC 29213); assay: MIC susceptibility testing; type: cell-based, Staphylococcus aureus; details: S. aureus ATCC 29213; for MIC: Staphylococcus aureus, read-out: (F) S. aureus (ATCC 29213) MIC
[4] = target: T1, MetRS (T. brucei) (Trypanosoma brucei brucei, UniProt Q38C91); assay: MetRS (T. brucei) enzyme inhibition; type: biochemical
T1 sequence (Q38C91 1-773): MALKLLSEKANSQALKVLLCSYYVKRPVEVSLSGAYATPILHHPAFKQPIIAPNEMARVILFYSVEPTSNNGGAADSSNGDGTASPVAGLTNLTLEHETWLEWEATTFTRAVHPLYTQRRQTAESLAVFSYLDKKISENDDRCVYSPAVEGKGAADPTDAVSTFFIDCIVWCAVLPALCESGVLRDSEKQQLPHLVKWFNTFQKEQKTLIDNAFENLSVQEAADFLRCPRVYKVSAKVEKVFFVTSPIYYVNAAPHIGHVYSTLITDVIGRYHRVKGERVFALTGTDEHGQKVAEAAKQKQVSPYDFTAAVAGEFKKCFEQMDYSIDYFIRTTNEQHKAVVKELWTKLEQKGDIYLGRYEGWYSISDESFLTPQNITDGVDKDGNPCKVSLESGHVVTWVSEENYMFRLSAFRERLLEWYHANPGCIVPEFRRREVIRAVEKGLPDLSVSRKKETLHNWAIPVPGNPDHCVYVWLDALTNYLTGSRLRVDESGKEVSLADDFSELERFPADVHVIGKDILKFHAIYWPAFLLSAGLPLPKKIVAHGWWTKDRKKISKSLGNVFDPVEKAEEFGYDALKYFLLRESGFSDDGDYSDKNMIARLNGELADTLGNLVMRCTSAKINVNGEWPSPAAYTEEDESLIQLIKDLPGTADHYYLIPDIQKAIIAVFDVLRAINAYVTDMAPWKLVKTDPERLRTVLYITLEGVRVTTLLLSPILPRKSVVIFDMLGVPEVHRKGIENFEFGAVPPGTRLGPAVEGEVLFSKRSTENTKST

[5] = target: MetRS (C. parvum) (Cryptosporidium parvum, UniProt Q5CVN0); assay: MetRS (C. parvum) enzyme inhibition; type: biochemical; details: read-out: (C) MetRS (C. parvum) IC50
Sequence of MetRS (C. parvum) (Q5CVN0 entry or part of it): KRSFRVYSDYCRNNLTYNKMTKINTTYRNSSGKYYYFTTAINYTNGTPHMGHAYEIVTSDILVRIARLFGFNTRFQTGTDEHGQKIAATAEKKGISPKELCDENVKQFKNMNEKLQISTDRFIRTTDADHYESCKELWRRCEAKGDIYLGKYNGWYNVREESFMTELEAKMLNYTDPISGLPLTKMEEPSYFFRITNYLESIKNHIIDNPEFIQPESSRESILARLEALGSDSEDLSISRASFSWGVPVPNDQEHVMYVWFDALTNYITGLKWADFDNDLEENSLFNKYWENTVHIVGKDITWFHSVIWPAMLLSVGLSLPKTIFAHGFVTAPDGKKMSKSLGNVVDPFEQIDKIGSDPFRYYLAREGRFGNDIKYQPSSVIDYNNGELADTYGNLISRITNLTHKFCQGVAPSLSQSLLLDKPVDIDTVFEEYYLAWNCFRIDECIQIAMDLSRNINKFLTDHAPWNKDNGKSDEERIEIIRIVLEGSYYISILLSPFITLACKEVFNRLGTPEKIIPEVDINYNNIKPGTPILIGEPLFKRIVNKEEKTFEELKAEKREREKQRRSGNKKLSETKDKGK

[6] = tested on: T. brucei; assay: T. brucei growth inhibition; type: cell-based, Trypanosoma brucei; details: read-out: (D) T. brucei EC50
[7] = tested on: T. cruzi; assay: T. cruzi growth inhibition; type: cell-based, Trypanosoma cruzi; details: read-out: (E) T. cruzi EC50
[8] = tested on: C. parvum; assay: C. parvum growth inhibition; type: cell-based, Cryptosporidium parvum; details: Cryptosporidium parvum; read-out: (J) C. parvum EC50
[9] = tested on: E. faecium VRE (ATCC 51559); assay: MIC susceptibility testing; type: cell-based, Enterococcus faecium; details: Enterococcus faecium, E. faecium ATCC 51559; read-out: (I) E. faecium (ATCC 51559) MIC
In short: as §1

Sequence of recombinant S. aureus MetRS enzyme (A0A0H2XID2 2-657): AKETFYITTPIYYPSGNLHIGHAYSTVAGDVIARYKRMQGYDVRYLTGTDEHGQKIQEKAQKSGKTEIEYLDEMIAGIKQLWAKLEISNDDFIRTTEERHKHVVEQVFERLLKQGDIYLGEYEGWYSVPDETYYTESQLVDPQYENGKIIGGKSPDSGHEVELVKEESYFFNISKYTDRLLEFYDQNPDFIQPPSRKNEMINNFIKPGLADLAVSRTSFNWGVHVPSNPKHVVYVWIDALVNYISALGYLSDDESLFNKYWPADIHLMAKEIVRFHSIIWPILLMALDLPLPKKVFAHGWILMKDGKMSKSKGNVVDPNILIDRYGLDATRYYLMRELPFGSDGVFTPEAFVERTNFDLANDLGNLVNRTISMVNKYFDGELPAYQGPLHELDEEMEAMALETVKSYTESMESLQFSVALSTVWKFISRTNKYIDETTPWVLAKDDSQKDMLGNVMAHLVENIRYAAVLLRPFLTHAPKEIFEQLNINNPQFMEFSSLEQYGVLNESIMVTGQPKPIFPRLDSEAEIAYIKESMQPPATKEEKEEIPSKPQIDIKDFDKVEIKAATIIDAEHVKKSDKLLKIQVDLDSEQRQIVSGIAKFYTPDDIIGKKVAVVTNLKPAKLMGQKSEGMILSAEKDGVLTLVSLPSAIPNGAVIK

COc1ccc(-c2cn(Cc3ccccc3)c3c2CN(Cc2nc4nc(Cl)ccc4[nH]2)CC3)c(Cl)c1 [Compound 2176, 2-((1-benzyl-3-(2-chloro-4-methoxyphenyl)-6,7-dihydro-1H-pyrrolo[3,2-c]pyridin-5(4H)-yl)methyl)-5-chloro-1H-imidazo[4,5-b]pyridine]
IC50 [1]: < 0.025 µM | MIC [2]: > 2.5 µg/mL | MIC [3]: > 0.5 µg/mL | IC50 [4]: < 0.04 µM | IC50 [5]: 0.08 µM | EC50 ([6]; Trypanosoma brucei): 0.0406 µM | EC50 ([7]; Trypanosoma cruzi): 0.283 µM

CCCn1c(Cc2ccc(Cl)cc2Cl)cn(Cc2nc3ccc(Cl)nc3[nH]2)c1=O [Compound 2079, 1-({5-chloro-1H-imidazo[4,5-b]pyridin-2-yl}methyl)-4-[(2,4-dichlorophenyl)-methyl]-3-propyl-2,3-dihydro-1H-imidazol-2-one]
IC50 [1]: < 0.025 µM | MIC [2]: > 2.5 µg/mL | (F) S. aureus (ATCC 29213) MIC [3]: 0.0391 µg/mL | MIC [3]: 0.044 µg/mL (≈ 0.0976 µM) | IC50 [4]: < 0.04 µM | IC50 [5]: < 0.04 µM | EC50 ([6]; Trypanosoma brucei): < 0.00091 µM | EC50 [6]: 0.00179 µM | EC50 ([7]; Trypanosoma cruzi): 0.026 µM | EC50 [7]: 0.0225 µM

COc1ccc(-c2cnc(N3CCN(C(C)=O)CC3)c3nc(Cc4nc5nc(Cl)ccc5[nH]4)cn23)c(Cl)c1 [Compound 2185, 1-{4-[2-({5-chloro-1H-imidazo[4,5-b]pyridin-2-yl}methyl)-5-(2-chloro-4-methoxyphenyl)imidazo[1,2-a]pyrazin-8-yl]piperazin-1-yl}ethan-1-one]
IC50 [1]: < 0.025 µM | MIC [2]: 1.2 µg/mL (≈ 2.18 µM) | MIC [3]: 0.358 µg/mL (≈ 0.649 µM) | IC50 [4]: < 0.04 µM | IC50 [5]: < 0.04 µM | EC50 ([7]; Trypanosoma cruzi): 0.0716 µM | EC50 [7]: 0.0909 µM | EC50 [8]: 0.243 µM

COc1ccc(-c2ccc3c(=O)ccn(Cc4nc5nc(F)ccc5[nH]4)c3c2)c(Cl)c1 [Compound 2168, 7-(2-chloro-4-methoxyphenyl)-1-((5-fluoro-1H-imidazo[4,5-b]pyridin-2-yl)methyl)quinolin-4(1H)-one]
IC50 [1]: < 0.025 µM | MIC [3]: > 1.25 µg/mL | MIC [9]: > 2.5 µg/mL | IC50 [4]: < 0.04 µM | IC50 [5]: < 0.04 µM | EC50 ([6]; Trypanosoma brucei): > 0.2 µM | EC50 ([7]; Trypanosoma cruzi): 6.15 µM

COc1cc(Cl)c(-c2cccc3nc(Cc4nc5nc(F)ccc5[nH]4)cn23)cc1OC [Compound 2145, 5-(2-chloro-4,5-dimethoxyphenyl)-2-({5-fluoro-1H-imidazo[4,5-b]pyridin-2-yl}methyl)imidazo[1,2-a]pyridine]
IC50 [1]: < 0.025 µM | IC50 [4]: < 0.04 µM | IC50 [5]: 0.0747 µM | EC50 ([7]; Trypanosoma cruzi): 0.0667 µM | EC50 [7]: 0.129 µM | EC50 [8]: > 2 µM

CS(=O)(=O)c1nc(Cc2ccc(Cl)cc2Cl)cn1Cc1nc2ccc(F)nc2[nH]1 [Compound 2105, 4-[(2,4-dichlorophenyl)methyl]-1-({5-fluoro-1H-imidazo[4,5-b]pyridin-2-yl}methyl)-2-methanesulfonyl-1H-imidazole]
IC50 [1]: < 0.025 µM | MIC [3]: 2.15 µg/mL (≈ 4.73 µM) | IC50 [4]: < 0.04 µM | IC50 [5]: 0.109 µM | EC50 ([6]; Trypanosoma brucei): 0.0715 µM | EC50 ([7]; Trypanosoma cruzi): 0.867 µM

O=c1n(Cc2nc3nc(F)ccc3[nH]2)cc(Cc2ccc(Cl)cc2Cl)n1C1CCOCC1 [Compound 2088, 4-[(2,4-dichlorophenyl)methyl]-1-({5-fluoro-1H-imidazo[4,5-b]pyridin-2-yl}methyl)-3-(oxan-4-yl)-2,3-dihydro-1H-imidazol-2-one]
IC50 [1]: < 0.025 µM | MIC [2]: 1.5 µg/mL (≈ 3.15 µM) | MIC [3]: 0.424 µg/mL (≈ 0.89 µM) | IC50 [4]: < 0.04 µM | IC50 [5]: < 0.04 µM | EC50 ([7]; Trypanosoma cruzi): 0.263 µM
